Results reported in PMC10693084, “Novel 8-Methoxycoumarin-3-Carboxamides with potent anticancer activity against liver cancer via targeting caspase-3/7 and β-tubulin polymerization” (BMC Chemistry, 2023).

Key:
[1] = test system: human liver carcinoma HepG2 cells; assay: MTT cytotoxicity assay against HepG2 cells; type: cell-based; conditions: for Structure–activity summary of cytotoxic activity (Fig. 4B) / IC50: HepG2 cells; for IC50: MTT, 24 h treatment
Protocol: To assess the antitumor properties of these compounds, we utilized the 3-(4,5-dimethylthiazol-2-yl)-2,5-diphenyl tetrazolium bromide (MTT) colorimetric assay, a widely used method to evaluate cell viability and cytotoxicity.
Following the incubation period, the cells were subjected to various concentrations of the prepared molecules and subsequently incubated for a duration of 24 h. […] Subsequently, a volume of 100 μL of dimethyl sulfoxide (DMSO) was introduced into each well in order to facilitate the dissolution of the purple formazan that had been generated. The quantification of the color intensity of the formazan product, which serves as an indicator of the cellular growth condition, is performed by employing an ELISA plate reader set at a wavelength of 570 nm. The experimental conditions were implemented with a minimum of three replicates, and the experiments were conducted on at least three separate occasions.

COc1cccc2cc(C(N)=O)c(=O)oc12 [Compound 4, 8-Methoxycoumarin-3-carboxamide]
melting point: 253 °C
Structure–activity summary of cytotoxic activity (Fig. 4B) [1]: moderate activity
IC50 [1]: 17.2 ± 1.05 µM
IC50 ([1]; Homo sapiens, HepG2, 24 h): 17 µM
HepG2-Cell Viability (%) ([1]; concentration LogC 0.19 (µM)): 65.8±1.73%
HepG2-Cell Viability (%) ([1]; concentration LogC 0.8 (µM)): 57.78±2.46%
HepG2-Cell Viability (%) ([1]; concentration LogC 1.4 (µM)): 47.29±3.09%
HepG2-Cell Viability (%) ([1]; concentration LogC 2 (µM)): 37.94±2.75%
HepG2-Cell Viability (%) ([1]; concentration LogC -0.41 (µM)): 75.81±1.48%

COc1cccc2cc(C(=O)NC(C)=O)c(=O)oc12 [Compound 6, N-acetyl 8-methoxycoumarin-3-carboxamide]
melting point: 285 °C
Structure–activity summary of cytotoxic activity (Fig. 4B) [1]: moderate activity
HepG2-Cell Viability (%) ([1]; concentration LogC 0.19 (µM)): 54.47±1.72%
HepG2-Cell Viability (%) ([1]; concentration LogC 0.8 (µM)): 44.64±1.98%
HepG2-Cell Viability (%) ([1]; concentration LogC 1.4 (µM)): 37.53±2.14%
HepG2-Cell Viability (%) ([1]; concentration LogC 2 (µM)): 27.04±2.87%
HepG2-Cell Viability (%) ([1]; concentration LogC -0.41 (µM)): 59.86±1.33%

COc1ccc(Br)c2cc(C(=O)NC(C)=O)c(=O)oc12 [Compound 7, N-acetyl 5-bromo-8-methoxycoumarin-3-carboxamide]
melting point: 220 °C
Structure–activity summary of cytotoxic activity (Fig. 4B) [1]: improved activity
IC50 [1]: 2.57 ± 0.16 µM
IC50 ([1]; Homo sapiens, HepG2, 24 h): 2.3 µM
HepG2-Cell Viability (%) ([1]; concentration LogC 0.19 (µM)): 68.52±2.36%
HepG2-Cell Viability (%) ([1]; concentration LogC 0.8 (µM)): 60.52±2.64%
HepG2-Cell Viability (%) ([1]; concentration LogC 1.4 (µM)): 53.19±2.87%
HepG2-Cell Viability (%) ([1]; concentration LogC 2 (µM)): 45.03±3.1%
HepG2-Cell Viability (%) ([1]; concentration LogC -0.41 (µM)): 77.18±1.73%

COc1cccc2cc(C(=O)O)c(=O)oc12 [Compound 8, 8-methoxycoumarin-3-carboxylic acid]
melting point: 186 °C
Structure–activity summary of cytotoxic activity (Fig. 4B) [1]: moderate activity
IC50 [1]: 5.18 ± 0.31 µM
IC50 ([1]; Homo sapiens, HepG2, 24 h): 5 µM

COc1ccc(Br)c2cc(C(=O)O)c(=O)oc12 [Compound 9, 5-Bromo-8-methoxycoumarin-3-carboxylic acid]
melting point: 210 °C
Structure–activity summary of cytotoxic activity (Fig. 4B) [1]: attenuated activity
IC50 [1]: 41.6 ± 2.52 µM
IC50 ([1]; Homo sapiens, HepG2, 24 h): 41 µM
HepG2-Cell Viability (%) ([1]; concentration LogC 0.19 (µM)): 66.86±1.86%
HepG2-Cell Viability (%) ([1]; concentration LogC 0.8 (µM)): 55.34±2.24%
HepG2-Cell Viability (%) ([1]; concentration LogC 1.4 (µM)): 50.19±3.07%
HepG2-Cell Viability (%) ([1]; concentration LogC 2 (µM)): 42.17±2.94%
HepG2-Cell Viability (%) ([1]; concentration LogC -0.41 (µM)): 73.23±1.47%
